“And” between values parts separate entries of the source, which are not always exact repeats. Identical values can stand only once. Inconclusive results and toxic doses are left out.
System: L1210 leukemia ip in BDF1 mice, survival T/C
Test: NCI In Vivo Anticancer Drug Screen. Data for tumor model L1210 Leukemia (intraperitoneal) in B6D2F1 (BDF1) mice
Conditions: endpoint: mean survival time, higher = longer survival
Summary of the method: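 Ratio derived from survival: compound-dosed mice over vehicle-dosed mice, all bearing a transplantable tumor.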

[1] = dose: 100.0 mg/kg/injection, schedule: Q01DX001 (ip), vehicle: carboxymethylcellulose (CMC)
[2] = dose: 200.0 mg/kg/injection, schedule: Q01DX001 (ip), vehicle: carboxymethylcellulose (CMC)
[3] = dose: 400.0 mg/kg/injection, schedule: Q01DX001 (ip), vehicle: carboxymethylcellulose (CMC)
[4] = dose: 100.0 mg/kg/injection, schedule: Q04DX003 (ip), vehicle: saline with Tween-80
[5] = dose: 12.5 mg/kg/injection, schedule: Q01DX001 (ip), vehicle: other
[6] = dose: 25.0 mg/kg/injection, schedule: Q01DX001 (ip), vehicle: other
[7] = dose: 100.0 mg/kg/injection, schedule: Q04DX003 (ip), vehicle: Klucel (hydroxypropylcellulose) (HPC)
[8] = dose: 200.0 mg/kg/injection, schedule: Q04DX003 (ip), vehicle: Klucel (hydroxypropylcellulose) (HPC)
[9] = dose: 10.0 mg/kg/injection, schedule: Q01DX001 (ip), vehicle: saline
[10] = dose: 20.0 mg/kg/injection, schedule: Q01DX001 (ip), vehicle: saline
[11] = dose: 40.0 mg/kg/injection, schedule: Q01DX001 (ip), vehicle: saline
[12] = dose: 25.0 mg/kg/injection, schedule: Q04DX003 (ip), vehicle: Klucel (hydroxypropylcellulose) (HPC)
[13] = dose: 100.0 mg/kg/injection, schedule: Q01DX001 (ip), vehicle: saline
[14] = dose: 50.0 mg/kg/injection, schedule: Q01DX001 (ip), vehicle: other

CN(C)CCN1C(=O)NC(C)(C)C1=O
T/C (dose: 50.0 mg/kg/injection, schedule: Q04DX003 (ip), vehicle: saline): 96 % of control | T/C (dose: 100.0 mg/kg/injection, schedule: Q04DX003 (ip), vehicle: saline): 101 % of control | T/C (dose: 200.0 mg/kg/injection, schedule: Q04DX003 (ip), vehicle: saline): 90 % of control | T/C (dose: 400.0 mg/kg/injection, schedule: Q04DX003 (ip), vehicle: saline): 93 % of control

NC(C(=O)O)C1SCCS1 (stereo not given)
T/C [1]: 102 % of control | T/C [2]: 102 % of control | T/C [3]: 98 % of control

O=P1(Cc2ccccc2)CCC(O)=C1c1ccccc1 (stereo not given)
T/C [4]: 94 % of control | T/C (dose: 200.0 mg/kg/injection, schedule: Q04DX003 (ip), vehicle: saline with Tween-80): 102 % of control | T/C (dose: 400.0 mg/kg/injection, schedule: Q04DX003 (ip), vehicle: saline with Tween-80): 91 % of control

CC[n+]1cccc(-c2ccc(NC(=O)/C=C/c3ccc(C(=O)Nc4ccc(-c5ccc[n+](CC)c5)cc4)cc3)cc2)c1
T/C (dose: 7.1 mg/kg/injection, schedule: Q01DX001 (ip), vehicle: carboxymethylcellulose (CMC)): 118 % of control | T/C (dose: 12.5 mg/kg/injection, schedule: Q01DX Z (ip), vehicle: carboxymethylcellulose (CMC)): 241 % of control | T/C (dose: 25.0 mg/kg/injection, schedule: Q01DX001 (ip), vehicle: carboxymethylcellulose (CMC)): 152 % of control and 157 % of control | T/C (dose: 25.0 mg/kg/injection, schedule: Q01DX Z (ip), vehicle: carboxymethylcellulose (CMC)): 211 % of control | T/C (dose: 50.0 mg/kg/injection, schedule: Q01DX001 (ip), vehicle: carboxymethylcellulose (CMC)): 202 % of control | T/C (dose: 50.0 mg/kg/injection, schedule: Q01DX Z (ip), vehicle: carboxymethylcellulose (CMC)): 164 % of control | T/C [1]: 238 % of control | T/C [2]: 263 % of control | T/C (dose: 300.0 mg/kg/injection, schedule: Q01DX001 (ip), vehicle: carboxymethylcellulose (CMC)): 120 % of control | T/C (dose: 450.0 mg/kg/injection, schedule: Q01DX001 (ip), vehicle: carboxymethylcellulose (CMC)): 124 % of control | T/C (dose: 675.0 mg/kg/injection, schedule: Q01DX001 (ip), vehicle: carboxymethylcellulose (CMC)): 107 % of control

ICc1cccc(CI)c1
T/C (dose: 6.25 mg/kg/injection, schedule: Q01DX009 (ip), vehicle: carboxymethylcellulose (CMC)): 100 % of control | T/C (dose: 6.25 mg/kg/injection, schedule: Q04DX003 (ip), vehicle: carboxymethylcellulose (CMC)): 111 % of control | T/C [5]: 95 % of control | T/C (dose: 12.5 mg/kg/injection, schedule: Q01DX009 (ip), vehicle: carboxymethylcellulose (CMC)): 94 % of control | T/C (dose: 12.5 mg/kg/injection, schedule: Q04DX003 (ip), vehicle: carboxymethylcellulose (CMC)): 97 % of control | T/C [6]: 95 % of control | T/C (dose: 25.0 mg/kg/injection, schedule: Q04DX003 (ip), vehicle: carboxymethylcellulose (CMC)): 92 % of control

CC(=O)Nc1ccc(OC(=O)Nc2cccc3ccccc23)cc1
T/C [7]: 89 % of control | T/C [8]: 96 % of control

COc1ccccc1N=Nc1c(O)n(-c2ccccc2)c(=S)n(-c2ccccc2)c1=O
T/C (dose: 100.0 mg/kg/injection, schedule: Q01DX001 (ip), vehicle: saline with Tween-80): 106 % of control | T/C (dose: 200.0 mg/kg/injection, schedule: Q01DX001 (ip), vehicle: saline with Tween-80): 95 % of control | T/C (dose: 400.0 mg/kg/injection, schedule: Q01DX001 (ip), vehicle: saline with Tween-80): 94 % of control

CC(C)(C)OC(=O)/N=N/C(=O)OC(C)(C)C
T/C [1]: 102 % of control | T/C [2]: 94 % of control | T/C [3]: 94 % of control

CC1N2CC12c1ccccc1 (stereo not given)
T/C [9]: 103 % of control | T/C [10]: 108 % of control | T/C [11]: 103 % of control

CC(C)(CO)N=Cc1ccccc1O
T/C [12]: 96 % of control | T/C (dose: 50.0 mg/kg/injection, schedule: Q04DX003 (ip), vehicle: Klucel (hydroxypropylcellulose) (HPC)): 104 % of control | T/C [7]: 96 % of control

NNc1ncnc2c1ccn2C1OC(CO)C(O)C1O (stereo not given)
T/C (dose: 5.0 mg/kg/injection, schedule: Q01DX001 (ip), vehicle: saline): 110 % of control | T/C [9]: 110 % of control | T/C [10]: 121 % of control | T/C (dose: 35.0 mg/kg/injection, schedule: Q01DX001 (ip), vehicle: saline): 108 % of control | T/C [11]: 115 % of control | T/C (dose: 53.0 mg/kg/injection, schedule: Q01DX001 (ip), vehicle: saline): 114 % of control | T/C (dose: 80.0 mg/kg/injection, schedule: Q01DX001 (ip), vehicle: saline): 114 % of control | T/C [13]: 119 % of control

CN(C)C=Nc1ccc(Cl)c(Cl)c1
T/C (dose: 12.5 mg/kg/injection, schedule: Q01DX009 (ip), vehicle: saline): 90 % of control | T/C (dose: 25.0 mg/kg/injection, schedule: Q01DX009 (ip), vehicle: saline): 90 % of control | T/C (dose: 50.0 mg/kg/injection, schedule: Q01DX009 (ip), vehicle: saline): 90 % of control | T/C [4]: 97 % of control

CC(=O)C(CCl)C(C)=O
T/C [14]: 102 % of control | T/C (dose: 100.0 mg/kg/injection, schedule: Q01DX001 (ip), vehicle: other): 96 % of control | T/C (dose: 200.0 mg/kg/injection, schedule: Q01DX001 (ip), vehicle: other): 96 % of control | T/C (dose: 400.0 mg/kg/injection, schedule: Q01DX001 (ip), vehicle: other): 96 % of control

CC(=O)c1ccc(C(=O)NCCCc2c(-c3ccccc3)nc(N)[nH]c2=O)cc1
T/C (dose: 100.0 mg/kg/injection, schedule: Q01DX001 (ip), vehicle: Klucel (hydroxypropylcellulose) (HPC)): 94 % of control | T/C (dose: 200.0 mg/kg/injection, schedule: Q01DX001 (ip), vehicle: Klucel (hydroxypropylcellulose) (HPC)): 94 % of control | T/C (dose: 400.0 mg/kg/injection, schedule: Q01DX001 (ip), vehicle: Klucel (hydroxypropylcellulose) (HPC)): 96 % of control

O=S1(=O)C(c2ccccc2)=C1c1ccccc1
T/C [5]: 100 % of control | T/C (dose: 12.5 mg/kg/injection, schedule: Q01DX009 (ip), vehicle: other): 95 % of control | T/C [6]: 94 % of control and 100 % of control | T/C (dose: 25.0 mg/kg/injection, schedule: Q01DX009 (ip), vehicle: other): 101 % of control | T/C [14]: 97 % of control and 101 % of control | T/C (dose: 50.0 mg/kg/injection, schedule: Q01DX009 (ip), vehicle: other): 86 % of control

CC1COCC(C)N1CC(=O)NCCCN1CCN(CCCNC(=O)CN2C(C)COCC2C)CC1 (stereo not given)
T/C (dose: 44.0 mg/kg/injection, schedule: Q01DX001 (ip), vehicle: saline): 98 % of control and 103 % of control | T/C (dose: 66.0 mg/kg/injection, schedule: Q01DX001 (ip), vehicle: saline): 104 % of control and 108 % of control | T/C [13]: 104 % of control and 105 % of control | T/C (dose: 150.0 mg/kg/injection, schedule: Q01DX001 (ip), vehicle: saline): 110 % of control and 116 % of control | T/C (dose: 200.0 mg/kg/injection, schedule: Q01DX001 (ip), vehicle: saline): 113 % of control

CC1C=C(Br)C(=O)c2ccccc2N1S(C)(=O)=O (stereo not given)
T/C (dose: 6.0 mg/kg/injection, schedule: Q04DX003 (ip), vehicle: Klucel (hydroxypropylcellulose) (HPC)): 98 % of control | T/C (dose: 12.0 mg/kg/injection, schedule: Q04DX003 (ip), vehicle: Klucel (hydroxypropylcellulose) (HPC)): 92 % of control | T/C (dose: 12.5 mg/kg/injection, schedule: Q01DX009 (ip), vehicle: Klucel (hydroxypropylcellulose) (HPC)): 102 % of control | T/C (dose: 25.0 mg/kg/injection, schedule: Q01DX009 (ip), vehicle: Klucel (hydroxypropylcellulose) (HPC)): 94 % of control | T/C [12]: 93 % of control and 96 % of control

COc1ccc(Nc2cc(=S)nc(N)[nH]2)cc1
T/C (dose: 100.0 mg/kg/injection, schedule: Q01DX Z (ip), vehicle: methylcellulose (MC)): 100 % of control | T/C (dose: 200.0 mg/kg/injection, schedule: Q01DX Z (ip), vehicle: methylcellulose (MC)): 115 % of control

COc1cc(Br)c2c(c1OC)C(=O)CC2
T/C (dose: 100.0 mg/kg/injection, schedule: Q01DX009 (ip), vehicle: Klucel (hydroxypropylcellulose) (HPC)): 94 % of control | T/C [7]: 98 % of control | T/C (dose: 200.0 mg/kg/injection, schedule: Q01DX009 (ip), vehicle: Klucel (hydroxypropylcellulose) (HPC)): 96 % of control | T/C [8]: 96 % of control | T/C (dose: 400.0 mg/kg/injection, schedule: Q01DX009 (ip), vehicle: Klucel (hydroxypropylcellulose) (HPC)): 98 % of control | T/C (dose: 400.0 mg/kg/injection, schedule: Q04DX003 (ip), vehicle: Klucel (hydroxypropylcellulose) (HPC)): 91 % of control

Source: PubChem BioAssay AID248 (DTP/NCI, 2004)
